Measured values from patent publication US20090311217A1, “3-SUBSTITUTED-1H-INDOLE COMPOUNDS, THEIR USE AS MTOR KINASE AND PI3 KINASE INHIBITORS, AND THEIR SYNTHESES” (priority 2008, published 2009).

Assays:
Format in all cases: biochemical
human TOR = target: T1, human TOR (Homo sapiens, UniProt P42345); assay: mTOR enzyme assay (DELFIA, His6-S6K substrate); conditions: read-out: mTOR Kinase Avg. IC50
T1 construct: FLAG

PI3K-alpha = PI3K-alpha (Homo sapiens, UniProt P42336); assay: PI3K-alpha fluorescence polarization assay; conditions: read-out: PI3Kα Avg. IC50
Chain of PI3K-alpha (P42336 whole entry, species assumed): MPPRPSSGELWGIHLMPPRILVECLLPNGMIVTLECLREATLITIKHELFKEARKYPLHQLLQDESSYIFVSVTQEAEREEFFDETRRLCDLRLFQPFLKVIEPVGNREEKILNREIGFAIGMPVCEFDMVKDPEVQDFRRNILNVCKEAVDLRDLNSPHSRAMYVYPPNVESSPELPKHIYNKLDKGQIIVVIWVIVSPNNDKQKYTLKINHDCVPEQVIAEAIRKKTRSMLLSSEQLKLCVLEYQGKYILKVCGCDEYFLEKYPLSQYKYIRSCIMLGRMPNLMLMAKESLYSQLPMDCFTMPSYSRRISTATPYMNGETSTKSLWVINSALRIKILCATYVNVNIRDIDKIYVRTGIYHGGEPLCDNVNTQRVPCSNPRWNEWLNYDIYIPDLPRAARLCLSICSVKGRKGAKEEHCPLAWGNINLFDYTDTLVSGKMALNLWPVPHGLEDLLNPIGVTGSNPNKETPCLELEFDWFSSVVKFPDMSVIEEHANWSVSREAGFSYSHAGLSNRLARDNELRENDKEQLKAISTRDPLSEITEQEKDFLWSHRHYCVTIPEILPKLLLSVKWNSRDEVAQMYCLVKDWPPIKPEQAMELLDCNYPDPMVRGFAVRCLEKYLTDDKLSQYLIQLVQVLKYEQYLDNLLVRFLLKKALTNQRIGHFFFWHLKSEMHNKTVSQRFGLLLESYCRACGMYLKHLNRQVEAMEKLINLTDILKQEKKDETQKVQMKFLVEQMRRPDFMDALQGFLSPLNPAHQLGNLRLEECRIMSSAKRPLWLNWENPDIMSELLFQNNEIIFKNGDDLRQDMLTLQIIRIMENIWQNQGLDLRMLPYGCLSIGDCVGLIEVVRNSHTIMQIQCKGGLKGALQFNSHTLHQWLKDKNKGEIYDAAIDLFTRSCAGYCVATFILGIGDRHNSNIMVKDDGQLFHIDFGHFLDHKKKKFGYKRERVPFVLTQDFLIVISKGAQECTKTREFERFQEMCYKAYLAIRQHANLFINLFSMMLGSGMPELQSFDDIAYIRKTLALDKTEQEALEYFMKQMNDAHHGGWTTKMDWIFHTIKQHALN
Chain of PI3K-alpha (P27986 whole entry partner, species assumed): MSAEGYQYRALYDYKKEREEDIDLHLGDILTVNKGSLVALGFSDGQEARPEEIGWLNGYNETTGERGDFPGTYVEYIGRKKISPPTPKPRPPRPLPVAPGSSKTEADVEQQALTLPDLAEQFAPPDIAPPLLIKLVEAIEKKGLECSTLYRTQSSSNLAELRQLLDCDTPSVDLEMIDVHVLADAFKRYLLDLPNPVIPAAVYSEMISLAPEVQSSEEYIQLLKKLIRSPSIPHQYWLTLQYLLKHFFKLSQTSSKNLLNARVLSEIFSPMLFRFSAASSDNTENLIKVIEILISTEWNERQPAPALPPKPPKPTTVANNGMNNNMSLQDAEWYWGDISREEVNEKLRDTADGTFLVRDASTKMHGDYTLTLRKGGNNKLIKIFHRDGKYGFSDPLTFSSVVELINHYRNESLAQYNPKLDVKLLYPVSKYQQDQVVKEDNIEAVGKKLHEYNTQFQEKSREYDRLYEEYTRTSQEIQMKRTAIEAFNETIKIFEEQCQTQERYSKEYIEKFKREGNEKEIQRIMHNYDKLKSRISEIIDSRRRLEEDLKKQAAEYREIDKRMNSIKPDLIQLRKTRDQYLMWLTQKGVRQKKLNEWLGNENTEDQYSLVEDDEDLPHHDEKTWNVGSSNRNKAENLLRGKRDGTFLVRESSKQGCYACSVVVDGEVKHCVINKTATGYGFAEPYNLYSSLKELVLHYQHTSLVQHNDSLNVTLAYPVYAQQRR

PI3K-gamma = PI3K-gamma (Homo sapiens, UniProt P48736); assay: PI3K-gamma fluorescence polarization assay; conditions: PI3Kγ Avg. IC50
Chain of PI3K-gamma (P48736 whole entry, species assumed, the tested form may be a part): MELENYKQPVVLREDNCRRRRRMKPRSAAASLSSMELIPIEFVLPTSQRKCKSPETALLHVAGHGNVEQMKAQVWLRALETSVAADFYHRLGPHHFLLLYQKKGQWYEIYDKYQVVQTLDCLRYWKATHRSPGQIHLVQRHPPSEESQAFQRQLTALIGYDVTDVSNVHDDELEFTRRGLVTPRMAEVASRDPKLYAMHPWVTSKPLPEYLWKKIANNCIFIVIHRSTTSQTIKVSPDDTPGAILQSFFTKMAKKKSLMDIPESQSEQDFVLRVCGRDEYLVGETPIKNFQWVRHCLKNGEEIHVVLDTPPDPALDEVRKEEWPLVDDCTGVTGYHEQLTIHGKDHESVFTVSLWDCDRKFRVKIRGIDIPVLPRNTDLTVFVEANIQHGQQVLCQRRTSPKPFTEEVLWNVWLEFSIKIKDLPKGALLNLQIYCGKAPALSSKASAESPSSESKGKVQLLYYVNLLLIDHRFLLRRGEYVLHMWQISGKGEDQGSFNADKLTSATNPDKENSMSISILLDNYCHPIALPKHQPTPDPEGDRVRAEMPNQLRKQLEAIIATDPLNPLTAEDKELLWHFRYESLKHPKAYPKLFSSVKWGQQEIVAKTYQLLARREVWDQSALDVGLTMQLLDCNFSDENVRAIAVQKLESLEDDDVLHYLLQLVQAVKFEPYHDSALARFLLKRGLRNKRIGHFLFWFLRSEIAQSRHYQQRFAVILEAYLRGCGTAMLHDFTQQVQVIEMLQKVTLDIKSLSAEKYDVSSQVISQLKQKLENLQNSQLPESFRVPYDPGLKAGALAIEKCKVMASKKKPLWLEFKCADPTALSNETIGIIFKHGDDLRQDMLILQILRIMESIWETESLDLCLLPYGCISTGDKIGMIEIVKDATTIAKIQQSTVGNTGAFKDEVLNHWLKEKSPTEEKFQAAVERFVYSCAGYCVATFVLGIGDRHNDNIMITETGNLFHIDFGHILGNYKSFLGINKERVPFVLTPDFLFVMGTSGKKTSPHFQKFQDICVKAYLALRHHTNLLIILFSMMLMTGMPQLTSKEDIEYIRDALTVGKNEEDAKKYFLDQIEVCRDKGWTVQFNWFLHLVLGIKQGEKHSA
Method in brief: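 Reactions used 5 ng enzyme with 2.5 μM diC8-PI(4,5)P2 and 25 μM ATP in 5 mM HEPES pH 7, 2.5 mM MgCl2, run 1 h at 25° C. After an EDTA quench (10 mM), 100 nM GST-GRP1 PH domain and 5 nM BODIPY-TMR-IP4 were added and fluorescence polarization was read.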

**Q.** What does the source list for `N#CCCCn1c(-c2ccccc2)c(C=C2Oc3cc(O)cc(O)c3C2=O)c2ccccc21` [Example 155, 4-{3-[(4,6-dihydroxy-3-oxo-1-benzofuran-2(3H)-ylidene)methyl]-2-phenyl-1H-indol-1-yl}butanenitrile]?
**A.** IC50 (human TOR): 0.08 µM; IC50 (PI3K-alpha): 0.516 µM; IC50 (PI3K-gamma): 5.35 µM

**Q.** For `CN(C)CCCn1c(-c2ccccc2)c(C=C2Oc3cc(O)cc(O)c3C2=O)c2ccccc21` [Example 156, 2-({1-[3-(dimethylamino)propyl]-2-phenyl-1H-indol-3-yl}methylene)-4,6-dihydroxy-1-benzofuran-3(2H)-one], which IC50 (human TOR) is on record?
**A.** 1.6 µM

**Q.** What about the IC50 (PI3K-alpha) of the same compound?
**A.** 1.29 µM

**Q.** And the IC50 (PI3K-gamma)?
**A.** 6 µM

**Q.** `O=C1C(=Cc2c(-c3ccccc3)n(CCN3CCCC3)c3ccccc23)Oc2cc(O)cc(O)c21` [Example 157, 4,6-dihydroxy-2-{[2-phenyl-1-(2-pyrrolidin-1-ylethyl)-1H-indol-3-yl]methylene}-1-benzofuran-3(2H)-one] was tested. Which IC50 (human TOR) did it give?
**A.** 2.5 µM

**Q.** And the IC50 (PI3K-alpha)?
**A.** 1.52 µM

**Q.** And the IC50 (PI3K-gamma)?
**A.** 2.43 µM

**Q.** Which IC50 (human TOR) does the source give for `O=C1C(=Cc2c(-c3ccccc3)n(CCC3CCNCC3)c3ccccc23)Oc2cc(O)cc(O)c21` [Example 158, 4,6-dihydroxy-2-{[2-phenyl-1-(2-piperidin-4-ylethyl)-1H-indol-3-yl]methylene}-1-benzofuran-3(2H)-one] here?
**A.** 4.6 µM

**Q.** And the IC50 (PI3K-alpha)?
**A.** 2.28 µM

**Q.** What about the IC50 (PI3K-gamma) of the same compound?
**A.** 4.88 µM

**Q.** For `CN1CCN(CCn2c(-c3ccccc3)c(C=C3Oc4cc(O)cc(O)c4C3=O)c3ccccc32)CC1` [Example 159, 4,6-dihydroxy-2-({1-[2-(4-methylpiperazin-1-yl)ethyl]-2-phenyl-1H-indol-3-yl}methylene)-1-benzofuran-3(2H)-one], which IC50 (human TOR) is on record?
**A.** 1.8 µM

**Q.** And the IC50 (PI3K-alpha)?
**A.** 2.86 µM

**Q.** What about the IC50 (PI3K-gamma) of the same compound?
**A.** 5.12 µM

**Q.** For `O=C1C(=Cc2c[nH]c3ccc(O)cc23)Oc2cc(O)cc(O)c21` [Example 164, 4,6-dihydroxy-2-[(5-hydroxy-1H-indol-3-yl)methylene]-1-benzofuran-3(2H)-one], which IC50 (human TOR) is on record?
**A.** 5.2 µM

**Q.** And the IC50 (PI3K-alpha)?
**A.** 0.251 µM

**Q.** And the IC50 (PI3K-gamma)?
**A.** 3.85 µM

**Q.** Which results are given for `O=C(O)c1ccc2[nH]cc(C=C3Oc4cc(O)cc(O)c4C3=O)c2c1` [Example 165, 3-[(4,6-dihydroxy-3-oxo-1-benzofuran-2(3H)-ylidene)methyl]-1H-indole-5-carboxylic acid]?
**A.** IC50 (human TOR): > 20 µM; IC50 (PI3K-alpha): 9.5 µM; IC50 (PI3K-gamma): > 10 µM

**Q.** For `O=C1C(=Cc2c[nH]c3cccc(Cl)c23)Oc2cc(O)cc(O)c21` [Example 171, 2-[(4-chloro-1H-indol-3-yl)methylene]-4,6-dihydroxy-1-benzofuran-3(2H)-one], which IC50 (human TOR) is on record?
**A.** > 20 µM

**Q.** And the IC50 (PI3K-alpha)?
**A.** 2.03 µM

**Q.** And the IC50 (PI3K-gamma)?
**A.** > 10 µM

**Q.** For `O=C1C(=Cc2c[nH]c3c(Cl)cccc23)Oc2cc(O)cc(O)c21` [Example 173, 2-[(7-chloro-1H-indol-3-yl)methylene]-4,6-dihydroxy-1-benzofuran-3(2H)-one], which IC50 (human TOR) is on record?
**A.** 17 µM

**Q.** What about the IC50 (PI3K-alpha) of the same compound?
**A.** 0.766 µM

**Q.** And the IC50 (PI3K-gamma)?
**A.** > 10 µM

**Q.** With `O=C1C(=Cc2c[nH]c3cccc(Br)c23)Oc2cc(O)cc(O)c21` [Example 174, 2-[(4-bromo-1H-indol-3-yl)methylene]-4,6-dihydroxy-1-benzofuran-3(2H)-one] as the compound, how does the IC50 (human TOR) read?
**A.** 7.1 µM

**Q.** What about the IC50 (PI3K-alpha) of the same compound?
**A.** 1.51 µM

**Q.** What about the IC50 (PI3K-gamma) of the same compound?
**A.** > 10 µM

**Q.** How did the IC50 (human TOR) turn out when `O=C1C(=Cc2c[nH]c3ccc(F)cc23)Oc2cc(O)cc(O)c21` [Example 175, 2-[(5-fluoro-1H-indol-3-yl)methylene]-4,6-dihydroxy-1-benzofuran-3(2H)-one] was run?
**A.** 9 µM

**Q.** What about the IC50 (PI3K-alpha) of the same compound?
**A.** 1.04 µM

**Q.** And the IC50 (PI3K-gamma)?
**A.** > 10 µM

**Q.** For `O=C1C(=Cc2c[nH]c3ccc(I)cc23)Oc2cc(O)cc(O)c21` [Example 177, 4,6-dihydroxy-2-[(5-iodo-1H-indol-3-yl)methylene]-1-benzofuran-3(2H)-one], which IC50 (human TOR) is on record?
**A.** 9.1 µM

**Q.** And the IC50 (PI3K-alpha)?
**A.** 0.187 µM

**Q.** What about the IC50 (PI3K-gamma) of the same compound?
**A.** 3.36 µM

**Q.** Which IC50 (human TOR) does the source give for `N#Cc1ccc2[nH]cc(C=C3Oc4cc(O)cc(O)c4C3=O)c2c1` [Example 182, 3-[(4,6-dihydroxy-3-oxo-1-benzofuran-2(3H)-ylidene)methyl]-1H-indole-5-carbonitrile] here?
**A.** 12 µM

**Q.** What about the IC50 (PI3K-alpha) of the same compound?
**A.** 1.11 µM

**Q.** And the IC50 (PI3K-gamma)?
**A.** > 10 µM
